# Earlier results as cited in US20060270852A1, “PREPARATION OF BISQUINOLINE COMPOUNDS” (priority 2005, published 2006).
# Like-named read-outs stand apart in the source and are kept apart here.
# Assays:
# [1] = not given; remark: listed apart in the source
# [2] = test system: falciparum and vivax malaria
solubility in water,dissociation constant [pKa] [1],solubility in water (at neutral and alkaline pH),SMILES,efficacy compared with chloroquine ([2]; against falciparum and vivax malaria),tolerability compared with chloroquine ([2]; in vivo)
soluble in water,,,Clc1ccc2c(N3CCN(CCCN4CCN(c5ccnc6cc(Cl)ccc56)CC4)CC3)ccnc2c1 [Piperaquine phosphate],,
,8.92,only sparingly soluble in water,"Clc1ccc2c(N3CCN(CCCN4CCN(c5ccnc6cc(Cl)ccc56)CC4)CC3)ccnc2c1 [piperaquine, 1,3-Bis-[4-(7′-chloro-quinoline-4′)piperazine-1]propane]",at least as effective as,better tolerated than
